In ChEMBL document CHEMBL5634077, “Recent advances in 1,2,3- and 1,2,4-triazole hybrids as antimicrobials and their SAR: A critical review” (2023):
≈ marks a conversion by molar mass, not a printed value.

Legend:
Staphylococcus aureus [1] = assay: Antibacterial activity against Staphylococcus aureus assessed as reduction in bacterial growth incubated for 24 hrs by broth microdilution method; assay type: functional
Staphylococcus aureus [2] = assay: Antibacterial activity against Staphylococcus aureus assessed as diameter of inhibition zone incubated for 24 hrs by […]; assay type: functional
Staphylococcus aureus [3] = assay: Antibacterial activity against Staphylococcus aureus ATCC 29213 assessed as reduction in bacterial growth by micro-broth dilution method; assay type: functional
Escherichia coli [4] = assay: Antibacterial activity against Escherichia coli ATCC 8739 assessed as reduction in bacterial growth by micro-broth dilution method; assay type: functional
Micrococcus luteus [5] = assay: Antibacterial activity against Micrococcus luteus IFC 12708 assessed as reduction in microbial growth; assay type: functional
Bacillus subtilis [6] = assay: Antibacterial activity against Bacillus subtilis MTCC 441 assessed as reduction in bacterial growth; assay type: functional
Staphylococcus aureus [7] = assay: Antibacterial activity against Staphylococcus aureus ATCC 6538p assessed as reduction in microbial growth; assay type: functional
Bacillus subtilis [8] = assay: Antibacterial activity against Bacillus subtilis ATCC 6633 assessed as reduction in microbial growth; assay type: functional
Escherichia coli [9] = assay: Antibacterial activity against Escherichia coli ATCC 25922 assessed as reduction in microbial growth; assay type: functional
Micrococcus luteus [10] = assay: Antibacterial activity against Micrococcus luteus assessed as reduction in microbial growth; assay type: functional
Proteus vulgaris [11] = assay: Antibacterial activity against Proteus vulgaris ATCC 3851 assessed as reduction in microbial growth; assay type: functional
Pseudomonas aeruginosa [12] = assay: Antibacterial activity against Pseudomonas aeruginosa MTCC 1034 assessed as reduction in bacterial growth; assay type: functional
Proteus vulgaris [13] = assay: Antibacterial activity against Proteus vulgaris assessed as reduction in bacterial growth; assay type: functional
Salmonella typhimurium = assay: Antibacterial activity against Salmonella typhimurium SL1344 assessed as reduction in microbial growth; assay type: functional, Salmonella enterica subsp. enterica serovar Typhimurium; details: Salmonella enterica
Pseudomonas aeruginosa [14] = assay: Antibacterial activity against Pseudomonas aeruginosa MCCB 0035 assessed as reduction in bacterial growth by micro-broth dilution method; assay type: functional
Bacillus subtilis [15] = assay: Antibacterial activity against Bacillus subtilis assessed as reduction in bacterial growth; assay type: functional
Staphylococcus aureus [16] = assay: Antibacterial activity against Staphylococcus aureus NCIM 2079 assessed as reduction in bacterial growth incubated for 18 to 24 hrs by broth microdilution method; assay type: functional; details: time 18-24 hrs
Pseudomonas aeruginosa [17] = assay: Antibacterial activity against Pseudomonas aeruginosa NCIM 2036 assessed as reduction in bacterial growth incubated for 18 to 24 hrs by broth microdilution method; assay type: functional; details: time 18-24 hrs
Escherichia coli [18] = assay: Antibacterial activity against Escherichia coli NCIM 2065 assessed as reduction in bacterial growth incubated for 18 to 24 hrs by broth microdilution method; assay type: functional; details: time 18-24 hrs
Proteus mirabilis = assay: Antibacterial activity against Proteus mirabilis NCIM 2241 assessed as reduction in bacterial growth incubated for 18 to 24 hrs by broth microdilution method; assay type: functional; details: time 18-24 hrs
Proteus vulgaris [19] = assay: Antibacterial activity against Proteus vulgaris NCIM 2027 assessed as reduction in bacterial growth incubated for 18 to 24 hrs by broth microdilution method; assay type: functional; details: time 18-24 hrs
Bacillus cereus [20] = assay: Antibacterial activity against Bacillus cereus NCIM 2156 assessed as reduction in bacterial growth incubated for 18 to 24 hrs by broth microdilution method; assay type: functional; details: time 18-24 hrs
Bacillus subtilis [21] = assay: Antibacterial activity against Bacillus subtilis NCIM 2063 assessed as reduction in bacterial growth incubated for 18 to 24 hrs by broth microdilution method; assay type: functional; details: time 18-24 hrs
Candida tropicalis = assay: Antifungal activity against Candida tropicalis IFRC 1057 assessed as reduction in fungal growth by CLSI based micro-dilution asssay; assay type: functional
Aspergillus niger [22] = assay: […] activity against Aspergillus niger NCIM 2191 assessed as reduction in […] by micro-broth dilution method; assay type: functional
Candida albicans [23] = assay: Antifungal activity against Candida albicans MTCC 227 assessed as inhibition of fungal growth; assay type: functional
Cryptococcus neoformans [24] = assay: Antifungal activity against Cryptococcus neoformans assessed as fungal growth inhibition by CLSI based method; assay type: functional
Candida albicans [25] = assay: Antifungal activity against Candida albicans assessed as fungal growth inhibition by CLSI based method; assay type: functional
Trichophyton rubrum = assay: Antifungal activity against Trichophyton rubrum assessed as reduction in fungal growth incubated for 5 to 7 days by NCCLS based assay; assay type: functional; details: time 5-7 day
Cryptococcus neoformans [26] = assay: Antifungal activity against Cryptococcus neoformans 32609 assessed as reduction in fungal growth incubated for 72 hrs by NCCLS based assay; assay type: functional
Aspergillus fumigatus [27] = assay: Antifungal activity against Aspergillus fumigatus 7544 assessed as reduction in fungal growth incubated for 5 to 7 days by NCCLS based assay; assay type: functional; details: time 5-7 day
Candida albicans [28] = assay: Antifungal activity against Candida albicans IFRC 194 assessed as reduction in fungal growth by CLSI based micro-dilution asssay; assay type: functional
Nakaseomyces glabratus [29] = assay: Antifungal activity against Candida glabrata assessed as reduction in fungal growth by CLSI based micro-dilution asssay; assay type: functional
Candida albicans [30] = assay: Antifungal activity against Candida albicans SC5314 assessed as reduction in fungal growth incubated for 24 hrs by NCCLS based assay; assay type: functional
Aspergillus niger [31] = assay: Antifungal activity against Aspergillus niger assessed as fungal growth inhibition; assay type: functional
Candida albicans [32] = assay: Antifungal activity against Candida albicans NCIM 2087 assessed as fungal growth inhibition; assay type: functional
Nakaseomyces glabratus [33] = assay: Antifungal activity against Candida glabrata 537 assessed as reduction in fungal growth incubated for 72 hrs by NCCLS based assay; assay type: functional
Candida albicans [34] = assay: Antifungal activity against Candida albicans Y0109 assessed as reduction in fungal growth incubated for 24 hrs by NCCLS based assay; assay type: functional
Staphylococcus aureus [35] = assay: Antibacterial activity against Staphylococcus aureus MTCC 3160 assessed as reduction in bacterial growth; assay type: functional
Nannizzia gypsea = assay: Antifungal activity against Microsporum gypseum assessed as reduction in fungal growth incubated for 5 to 7 days by NCCLS based assay; assay type: functional; details: time 5-7 day
Aspergillus fumigatus [36] = assay: […] activity against Aspergillus fumigatus NCIM 2081 assessed as reduction in […] by micro-broth dilution method; assay type: functional
Candida parapsilosis = assay: Antifungal activity against Candida parapsilosis IFRC 1269 assessed as reduction in fungal growth by CLSI based micro-dilution asssay; assay type: functional; details: Lodderomyces parapsilosis
Pichia kudriavzevii = assay: Antifungal activity against Candida krusei IFRC 1012 assessed as reduction in fungal growth by CLSI based micro-dilution asssay; assay type: functional
Aspergillus flavus = assay: Antifungal activity against Aspergillus flavus assessed as diameter of inhibition zone at 50 to 100 ug/ml by disc-diffusion method; assay type: functional; details: dose 50-100 µg/ml
Candida albicans [37] = assay: Antifungal activity against Candida albicans assessed as diameter of inhibition zone at 50 to 100 ug/ml by disc-diffusion method; assay type: functional; details: dose 50-100 µg/ml
Escherichia coli [38] = assay: Antibacterial activity against Escherichia coli ATCC 8739; assay type: functional
Staphylococcus aureus [39] = assay: Antibacterial activity against Staphylococcus aureus ATCC 6538P; assay type: functional
Pseudomonas aeruginosa [40] = assay: Antibacterial activity against Pseudomonas aeruginosa ATCC 9027; assay type: functional
Escherichia coli [41] = assay: Antibacterial activity against Escherichia coli assessed as reduction in bacterial growth by broth microdilution method; assay type: functional
Bacillus subtilis [42] = assay: Antibacterial activity against Bacillus subtilis NCIM-2063 by CLSI based microdilution assay; assay type: functional
Bacillus cereus [43] = assay: Antibacterial activity against Bacillus cereus NCIM-2156 by CLSI based microdilution assay; assay type: functional
Staphylococcus aureus [44] = assay: Antibacterial activity against Staphylococcus aureus NCIM-2079 by CLSI based microdilution assay; assay type: functional
Escherichia coli [45] = assay: Antibacterial activity against Escherichia coli NCIM-2065 by CLSI based microdilution assay; assay type: functional
Proteus vulgaris [46] = assay: Antibacterial activity against Proteus vulgaris NCIM-2027 by CLSI based microdilution assay; assay type: functional

## O=c1cc(OCCn2cc(Cn3cc(Cl)c(=O)n(Cc4cn(CCOc5cc(=O)oc6ccccc56)nn4)c3=O)nn2)c2ccccc2o1
Staphylococcus aureus [1]
  MIC: 7.23 µg/mL (≈ 10.6 µM)
Staphylococcus aureus [2]
  diameter of the inhibition zone (DIZ): 26 mm

## CC1(C)S[C@@H]2[C@H](NC(=O)[C@H](N)c3ccccc3)C(=O)N2[C@H]1C(=O)O [AMPICILLIN]
Staphylococcus aureus [3]
  MIC: 2 µg/mL (≈ 5.72 µM)
Escherichia coli [4]
  MIC: 1 µg/mL (≈ 2.86 µM)
Micrococcus luteus [5]
  MIC: 1.56 µg/mL
Bacillus subtilis [6]
  MIC: 0.5 µg/mL (≈ 1.43 µM)
Staphylococcus aureus [7]
  MIC: 1.56 µg/mL
Bacillus subtilis [8]
  MIC: 1.56 µg/mL
Escherichia coli [9]
  MIC: 1.56 µg/mL
Micrococcus luteus [10]
  MIC: 1.56 µg/mL
Proteus vulgaris [11]
  MIC: 1.56 µg/mL
Pseudomonas aeruginosa [12]
  MIC: 0.5 µg/mL (≈ 1.43 µM)
Proteus vulgaris [13]
  MIC: 1.56 µg/mL (≈ 4.46 µM)
Salmonella typhimurium
  MIC: 1.56 µg/mL
Pseudomonas aeruginosa [14]
  MIC: 4 µg/mL (≈ 11.4 µM)
Bacillus subtilis [15]
  MIC: 1.56 µg/mL (≈ 4.46 µM)

## CC(=O)NCn1nc(NCCCNc2ccnc3cc(Cl)ccc23)n(N)c1=S
Staphylococcus aureus [16]
  MIC: 6.25 µg/mL (≈ 14.8 µM)
Pseudomonas aeruginosa [17]
  MIC: 25 µg/mL (≈ 59.4 µM)
Escherichia coli [18]
  MIC: 12.5 µg/mL (≈ 29.7 µM)
Proteus mirabilis
  MIC: 12.5 µg/mL (≈ 29.7 µM)
Proteus vulgaris [19]
  MIC: 12.5 µg/mL (≈ 29.7 µM)
Bacillus cereus [20]
  MIC: 6.25 µg/mL (≈ 14.8 µM)
Bacillus subtilis [21]
  MIC: 12.5 µg/mL (≈ 29.7 µM)

## OC(Cn1cncn1)(Cn1cncn1)c1ccc(F)cc1F [FLUCONAZOLE]
Candida tropicalis
  MIC: 0.5 µg/mL (≈ 1.63 µM)
Aspergillus niger [22]
  MIC: 4 µg/mL (≈ 13.1 µM)
Candida albicans [23]
  MIC: 40 µM (≈ 12.3 µg/mL)
Cryptococcus neoformans [24]
  MIC: 4 µg/mL (≈ 13.1 µM)
Candida albicans [25]
  MIC: 4 µg/mL (≈ 13.1 µM)
Trichophyton rubrum
  MIC80: 8 µg/mL (≈ 26.1 µM)
Cryptococcus neoformans [26]
  MIC80: 1 µg/mL (≈ 3.27 µM)
Aspergillus fumigatus [27]
  MIC80: > 64 µg/mL
Candida albicans [28]
  MIC: 0.5 µg/mL (≈ 1.63 µM)
Nakaseomyces glabratus [29]
  MIC: 0.5 µg/mL (≈ 1.63 µM)
Candida albicans [30]
  MIC80: 0.5 µg/mL (≈ 1.63 µM)
Aspergillus niger [31]
  MIC: 20.4 µg/mL (≈ 66.6 µM)
Candida albicans [32]
  MIC: 1 µg/mL (≈ 3.27 µM)
Nakaseomyces glabratus [33]
  MIC80: 2 µg/mL (≈ 6.53 µM)
Candida albicans [34]
  MIC80: 0.25 µg/mL (≈ 0.816 µM)
Staphylococcus aureus [35]
  MIC: 40 µM (≈ 12.3 µg/mL)
Nannizzia gypsea
  MIC80: 32 µg/mL (≈ 104 µM)
Aspergillus fumigatus [36]
  MIC: 16 µg/mL (≈ 52.2 µM)
Candida parapsilosis
  MIC: 0.5 µg/mL (≈ 1.63 µM)
Pichia kudriavzevii
  MIC: 0.5 µg/mL (≈ 1.63 µM)

## CCOC(=O)C1=C(C)Oc2nc(C)n(Cc3cn(-c4cccc(F)c4)nn3)c(=O)c2C1c1ccc([N+](=O)[O-])cc1 (stereo not given)
Aspergillus flavus
  diameter of the inhibition zone (DIZ): 12 mm
Candida albicans [37]
  diameter of the inhibition zone (DIZ): 12 mm

## CCOC(=O)C1=C(C)Oc2nc(C)n(Cc3cn(-c4cccc(C(F)(F)F)c4)nn3)c(=O)c2C1c1ccc([N+](=O)[O-])cc1 (stereo not given)
Aspergillus flavus
  diameter of the inhibition zone (DIZ): 10.5 mm
Candida albicans [37]
  diameter of the inhibition zone (DIZ): 10.5 mm

## CCn1cc(C(=O)O)c(=O)c2cc(F)c(N3CCNCC3)cc21 [NORFLOXACIN]
Escherichia coli [38]
  MIC: 0.125 µg/mL (≈ 0.391 µM)
Staphylococcus aureus [39]
  MIC: 0.125 µg/mL (≈ 0.391 µM)
Pseudomonas aeruginosa [40]
  MIC: 0.125 µg/mL (≈ 0.391 µM)

## Nn1c(NCCCNc2ccnc3cc(Cl)ccc23)nn(CN2CCNCC2)c1=S
Staphylococcus aureus [16]
  MIC: 3.12 µg/mL (≈ 6.98 µM)
Pseudomonas aeruginosa [17]
  MIC: 25 µg/mL (≈ 55.8 µM)
Escherichia coli [18]
  MIC: 6.25 µg/mL (≈ 14 µM)
Proteus mirabilis
  MIC: 12.5 µg/mL (≈ 27.9 µM)
Proteus vulgaris [19]
  MIC: 12.5 µg/mL (≈ 27.9 µM)
Bacillus cereus [20]
  MIC: 3.12 µg/mL (≈ 6.98 µM)
Bacillus subtilis [21]
  MIC: 12.5 µg/mL (≈ 27.9 µM)

## NC(=O)NCn1nc(NCCCNc2ccnc3cc(Cl)ccc23)n(N)c1=S
Staphylococcus aureus [16]
  MIC: 6.25 µg/mL (≈ 14.8 µM)
Pseudomonas aeruginosa [17]
  MIC: 50 µg/mL (≈ 119 µM)
Escherichia coli [18]
  MIC: 3.12 µg/mL (≈ 7.41 µM)
Proteus mirabilis
  MIC: 12.5 µg/mL (≈ 29.6 µM)
Proteus vulgaris [19]
  MIC: 12.5 µg/mL (≈ 29.6 µM)
Bacillus cereus [20]
  MIC: 3.12 µg/mL (≈ 7.41 µM)
Bacillus subtilis [21]
  MIC: 12.5 µg/mL (≈ 29.6 µM)

## Cc1ccc(NC(=O)Cn2cc(Cn3cc(CC(NC(=O)C(C)c4ccc(CC(C)C)cc4)C(=O)NC(Cc4ccccc4)C(N)=O)c4ccccc43)nn2)c(C)c1 (stereo not given)
Escherichia coli [41]
  MIC: 25 µg/mL (≈ 32 µM)

## O=C(CNN1C(=O)CSC1c1ccc(-c2ccc(F)cc2)cc1)NN1C(c2ccncc2)=NNC1S (stereo not given)
Bacillus subtilis [42]
  MIC: 3.12 µg/mL (≈ 5.97 µM)
Bacillus cereus [43]
  MIC: 3.12 µg/mL (≈ 5.97 µM)
Staphylococcus aureus [44]
  MIC: 3.12 µg/mL (≈ 5.97 µM)
Escherichia coli [45]
  MIC: 3.12 µg/mL (≈ 5.97 µM)
Proteus vulgaris [46]
  MIC: 3.12 µg/mL (≈ 5.97 µM)
